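Five compound concentrations were applied to cells in 96-well plates for 48 hours; endpoints were derived by simple linear interpolation of the resulting dose-response curve. The concentration for full growth arrest is given as TGI.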
Assays:
Assay in all cases: NCI-60 cell line screen, 48 h
MDA-MB-435 = tested on: MDA-MB-435
NCI-H460 lung = tested on: NCI-H460 lung
NCI/ADR-RES ovarian = tested on: NCI/ADR-RES ovarian
A549 NSCLC = tested on: A549 NSCLC
NCI-H522 lung = tested on: NCI-H522 lung
SN12C renal = tested on: SN12C renal
HOP-92 NSCLC = tested on: HOP-92 NSCLC
SF-539 CNS = tested on: SF-539 CNS
K-562 leukemia = tested on: K-562 leukemia
MDA-MB-231 breast = tested on: MDA-MB-231 breast
PC-3 prostate = tested on: PC-3 prostate
M14 melanoma = tested on: M14 melanoma
UACC-62 melanoma = tested on: UACC-62 melanoma
CCRF-CEM leukemia = tested on: CCRF-CEM leukemia
OVCAR-3 ovarian = tested on: OVCAR-3 ovarian
RPMI-8226 leukemia = tested on: RPMI-8226 leukemia
KM12 colon = tested on: KM12 colon
MALME-3M melanoma = tested on: MALME-3M melanoma
IGROV1 ovarian = tested on: IGROV1 ovarian
EKVX NSCLC = tested on: EKVX NSCLC
HCT-15 colon = tested on: HCT-15 colon
ACHN renal = tested on: ACHN renal
U251 CNS = tested on: U251 CNS
SNB-75 CNS = tested on: SNB-75 CNS
T-47D breast = tested on: T-47D breast
HOP-62 NSCLC = tested on: HOP-62 NSCLC
SF-295 CNS = tested on: SF-295 CNS
SF-268 CNS = tested on: SF-268 CNS
786-0 renal = tested on: 786-0 renal
SK-MEL-28 melanoma = tested on: SK-MEL-28 melanoma
DU-145 prostate = tested on: DU-145 prostate
UACC-257 melanoma = tested on: UACC-257 melanoma
TK-10 renal = tested on: TK-10 renal
MOLT-4 leukemia = tested on: MOLT-4 leukemia
NCI-H226 lung = tested on: NCI-H226 lung
SK-OV-3 ovarian = tested on: SK-OV-3 ovarian
SR leukemia = tested on: SR leukemia
SW-620 colon = tested on: SW-620 colon
HS 578T breast = tested on: HS 578T breast
OVCAR-4 ovarian = tested on: OVCAR-4 ovarian
HCT-116 colon = tested on: HCT-116 colon
HCC-2998 colon = tested on: HCC-2998 colon
COLO 205 colon = tested on: COLO 205 colon
RXF 393 renal = tested on: RXF 393 renal
BT-549 breast = tested on: BT-549 breast
HT29 colon = tested on: HT29 colon
OVCAR-8 ovarian = tested on: OVCAR-8 ovarian
MCF7 breast = tested on: MCF7 breast
NCI-H23 lung = tested on: NCI-H23 lung
A498 renal = tested on: A498 renal
HL-60(TB) leukemia = tested on: HL-60(TB) leukemia
LOX IMVI melanoma = tested on: LOX IMVI melanoma

Measured: TGI

[N-]=[N+]=Nc1cccc(-c2n[nH]c(Cl)cc2=O)c1
> 100 µM: all assays above

Source: PubChem BioAssay (NCI)
